Data on 13 compounds can be found in article PMC4096222 (Journal of Medicinal Chemistry, 2014).

For one data set, the target named is A/M2 wt (Influenza A virus, UniProt P0DOF5). It counts as cell-based.
For the next data set, the system named is A/PR/8/34 (A/H1N1). The class given is cell-based, influenza A virus.
A further data set deals with A/HK/7/87 (A/H3N2). Nature of the data set: microbe, parasite or virus in culture. The class given is cell-based. The conditions noted are these: Influenza A virus, H3N2, MDCK, 72 h, read-out: antiviral EC50 values against A/HK/7/87 (range).
A further data set concerns A/HK/7/87. It counts as cell-based, influenza A virus. As to conditions: for inhibition of plaque formation: at 0.5–2 μM, 72 h.
The subject of a further data set is MDCK cells. The conditions noted are these: for cytotoxicity MCC: minimum cytotoxic concentration, minimal alterations in cell morphology after 72 h, MDCK; for concentration at which visibly toxic: MDCK cells.
Where [1] appears, read: read-out: antiviral activity A/PR/8/34 EC50 (CPE).
Where [2] appears, read: read-out: antiviral activity A/PR/8/34 EC50 (MTS).

Read-outs that look alike come from different tables or passages of the source.

Sequence of A/M2 wt (P0DOF5 whole entry, looked up): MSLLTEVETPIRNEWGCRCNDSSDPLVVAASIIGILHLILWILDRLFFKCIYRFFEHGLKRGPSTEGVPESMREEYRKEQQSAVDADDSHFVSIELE

For the compound `C1CC2C3CNCC3C1C1CC21.Cl` (centres unmarked) [compound 6, 4-Azatetracyclo[5.3.2.0^2,6.0^8.10]dodecane Hydrochloride], the “inhibition of wt channel” value against A/M2 wt was “potent low-micromolar inhibitors”. The EC50 was above 100 µM in the data set on A/PR/8/34 (A/H1N1) (setting [1]), above 100 µM in the data set with A/PR/8/34 (A/H1N1) (setting [2]) and 3 to 8 µM with A/HK/7/87 (A/H3N2). Also, the “activity in virus yield and plaque reduction assays” value in the data set with A/HK/7/87 is listed as “confirmed the activity”. Also, the “cytotoxicity MCC” value in the data set with MDCK cells was determined as 100 µM.
Take `Cl.N=C(N)N1CC2C3CCC(C4CCC43)C2C1` (centres unmarked) [compound 14, 4-Amidino-4-azatetracyclo[5.4.2.0^2,6.0^8.11]tridecane Hydrochloride]: at A/M2 wt, the “inhibition of wt channel” value is listed as “potent low-micromolar inhibitors”. Moreover, the EC50 in the data set with A/PR/8/34 (A/H1N1) (setting [1]) was above 100 µM. The EC50 in the data set with A/PR/8/34 (A/H1N1) (setting [2]) is above 100 µM. Besides, the “reduction in plaque size or number” value in the data set on A/HK/7/87 is recorded as “modest”. Moreover, in the data set on MDCK cells, the “concentration at which visibly toxic” value fell in the range of 2000 to 8000 nM and the “cytotoxicity MCC” value was 4 µM.
As to `CC12CC34CN(C(=N)N)CC35CC1(C)C(C)(C5)C2(C)C4.Cl` (centres unmarked) [compound 19, 3-Amidino-7,8,9,10-tetramethyl-3-azapentacyclo[7.2.1.1^5,8.0^1,5.0^7,10]tridecane Hydrochloride], the EC50 in the data set with A/PR/8/34 (A/H1N1) (setting [1]) and in the data set on A/PR/8/34 (A/H1N1) (setting [2]) was above 100 µM throughout. Further, in the data set on MDCK cells, the “cytotoxicity MCC” value was at least 4 µM.
`Cl.N=C(N)N1CC2C3C=CC(C4CC34)C2C1` (centres unmarked) [compound 5, 4-Amidino-4-azatetracyclo[5.3.2.0^2,6.0^8.10]dodec-11-ene Hydrochloride]: the “inhibition of wt channel” value at A/M2 wt was “potent low-micromolar inhibitors”. Also, the EC50 in the data set with A/PR/8/34 (A/H1N1) (setting [1]) and with A/PR/8/34 (A/H1N1) (setting [2]) was above 100 µM each time. In addition, the “cytotoxicity MCC” value in the data set with MDCK cells came to 100 µM.
`C1=CC2C3CC3C1C1CN(C3CCNCC3)CC21.Cl` (centres unmarked) [compound 8, 4-(4-Piperidinyl)-4-azatetracyclo[5.3.2.0^2,6.0^8.10]dodec-11-ene Dihydrochloride]: at A/M2 wt, the “activity on A/M2 channels” value was “did not display any activity”. The EC50 in the data set on A/PR/8/34 (A/H1N1) (setting [1]) is at most 0.8 µM; in the data set with A/PR/8/34 (A/H1N1) (setting [2]) it was below 0.8 µM. Moreover, in the data set with MDCK cells, the “cytotoxicity MCC” value was determined as 100 µM.
The like results for `C1CC(N2CC3C4CCC(C5CC45)C3C2)CCN1.Cl` (centres unmarked) [compound 9, 4-(4-Piperidinyl)-4-azatetracyclo[5.3.2.0^2,6.0^8.10]dodecane Dihydrochloride] were, in that order, “did not display any activity”, above 100 µM, above 100 µM and 20 µM.
On to `C1CC2C1C1CCC2C2CNCC12.Cl` (centres unmarked) [compound 12, 4-Azatetracyclo[5.4.2.0^2,6.0^8.11]tridecane Hydrochloride], for which the “inhibition of wt channel” value at A/M2 wt is “potent low-micromolar inhibitors”. The EC50 with A/PR/8/34 (A/H1N1) (setting [1]) and in the data set on A/PR/8/34 (A/H1N1) (setting [2]) was above 100 µM each time. The “reduction in plaque size or number” value in the data set with A/HK/7/87 is given as “clear”. For the same compound, in the data set with MDCK cells, the “concentration at which visibly toxic” value was in the range of 2000 to 8000 nM.
With `Cl.N=C(N)N1CC2C3CCC(C4CC34)C2C1` (centres unmarked) [compound 7, 4-Amidino-4-azatetracyclo[5.3.2.0^2,6.0^8.10]dodecane Hydrochloride], the “inhibition of wt channel” value at A/M2 wt is “potent low-micromolar inhibitors”. Moreover, the EC50 with A/PR/8/34 (A/H1N1) (setting [1]) and in the data set with A/PR/8/34 (A/H1N1) (setting [2]) was above 100 µM throughout. Besides, the “cytotoxicity MCC” value with MDCK cells was 100 µM.
As to `C1=CC2C3CNCC3C1C1CC21.Cl` (centres unmarked) [compound 4, 4-Azatetracyclo[5.3.2.0^2,6.0^8.10]dodec-11-ene Hydrochloride], the “inhibition of wt channel” value against A/M2 wt was “potent low-micromolar inhibitors”. The results for the EC50 in the data set on A/PR/8/34 (A/H1N1) (setting [1]), in the data set on A/PR/8/34 (A/H1N1) (setting [2]) and with A/HK/7/87 (A/H3N2) were above 100 µM, above 100 µM and 3 to 8 µM, respectively. Besides, in the data set with A/HK/7/87, the “activity in virus yield and plaque reduction assays” value is “confirmed the activity”. Moreover, the “cytotoxicity MCC” value in the data set with MDCK cells is 100 µM.
For the compound `NC12CC3CC(CC(C3)C1)C2` [amantadine, reference compound], the EC50 in the data set with A/PR/8/34 (A/H1N1) (setting [2]) came out at 34 µM.
Regarding `Cl.N=C(N)N1CC2C3C=CC(C4C=CC43)C2C1` (centres unmarked) [compound 13, 4-Amidino-4-azatetracyclo[5.4.2.0^2,6.0^8.11]trideca-9,12-diene Hydrochloride], the “inhibition of wt channel” value against A/M2 wt is “potent low-micromolar inhibitors”. For the same compound, the EC50 in the data set with A/PR/8/34 (A/H1N1) (setting [1]) and in the data set with A/PR/8/34 (A/H1N1) (setting [2]) was above 100 µM throughout. In addition, the “inhibition of plaque formation” value with A/HK/7/87 was “visible inhibition of plaque formation”. For the same compound, the “cytotoxicity MCC” value in the data set on MDCK cells was determined as 20 µM.
`C1=CC2C1C1C=CC2C2CNCC12.Cl` (centres unmarked) [compound 11, 4-Azatetracyclo[5.4.2.0^2,6.0^8.11]trideca-9,12-diene Hydrochloride]: on A/M2 wt, the “inhibition of wt channel” value was “potent low-micromolar inhibitors”. Besides, the EC50 in the data set on A/PR/8/34 (A/H1N1) (setting [2]) was below 0.8 µM. The “inhibition of plaque formation” value in the data set with A/HK/7/87 was “visible inhibition of plaque formation”.
For the compound `CC12CC34CNCC35CC1(C)C(C)(C5)C2(C)C4.Cl` (centres unmarked) [compound 18, 7,8,9,10-Tetramethyl-3-azapentacyclo[7.2.1.1^5,8.0^1,5.0^7,10]tridecane Hydrochloride], the “inhibition of plaque formation” value in the data set with A/HK/7/87 is given as “visible inhibition of plaque formation”. Also, in the data set on MDCK cells, the “cytotoxicity MCC” value amounted to 100 µM.
